Results on 32 compounds are retold here after ChEMBL document CHEMBL1157539, “Thousands of chemical starting points for antimalarial lead identification” (Nature, 2010).

This test deals with Plasmodium falciparum. Nature of the test: GSK_TCMDC: Inhibition of Plasmodium falciparum 3D7 in whole erythrocytes, using parasite LDH activity as an index of growth. The note with it: Plasmodium falciparum, 3D7. The format is functional, organism-based.
`CC(C)N1CCC(N(Cc2ccc(-c3ccc(C(F)(F)F)cc3)cc2)C(=O)CCCn2c(CCc3cccc(F)c3F)nc(=O)c3ccccc32)CC1` displayed an XC50 of 972 nM.

On to `O=C(/C=C/c1ccc(Cl)c(Cl)c1)NCCCCCN1CCN(C(=O)Nc2ccc(Cl)c(C(F)(F)F)c2)CC1`, for which the XC50 came to 816 nM.

On to `COc1ccc2c(NCCc3ccccc3)cc(-c3ccccc3)nc2c1`, for which the XC50 worked out at 987 nM.

Take `CN(C)CCC(=O)c1ccccc1`: the XC50 turned out to be 335 nM.

The compound `NC[C@H](CC1CCCCC1)NC(=O)c1ccc(-c2ccnc3[nH]ccc23)s1` registered an XC50 of 950 nM.

Compound `Cc1cccc2nc(-c3ccc(-c4ccc(C(=O)NCCN5CCCC5)cc4)s3)[nH]c12` displayed an XC50 of 901 nM.

In turn, `CN(C)Cc1ccc(O)c(-c2ccc(C(C)(C)C)cc2)n1` registered an XC50 of 1080 nM.

`COc1ccc(N2CCN(CCCN3CCN(C(=O)c4ccc(/C=C/c5ccc(Cl)c(Cl)c5)cc4)CC3)CC2)c(OC)c1`: the XC50 came out at 907 nM.

In turn, `Cc1ccc(-n2nc(-c3ccccc3)c3cc(C(=O)NCCN)sc32)cc1` had an XC50 of 1370 nM.

In turn, `CCCOc1ccc(-c2nonc2NC(=O)c2ccccc2OC)cc1OCCC` came in with an XC50 of 858 nM.

`Cc1cc(C2CCN(CCCCNC(=O)c3ccc(-c4ccc(C(F)(F)F)cc4)cc3)CC2)c(C)cc1OCC#N` displayed an XC50 of 1010 nM.

Compound `CC(=O)Nc1ccc(OCCCCN(Cc2ccccc2C(F)(F)F)c2ccc(C(F)(F)F)c(C#N)c2)c(Cl)c1` came in with an XC50 of 545 nM.

Turning to `Cc1cccc(-c2nc(Nc3ccncc3)c3cc(N(C)C)ccc3n2)n1`, the XC50 turned out to be 710 nM.

Consider `Clc1cnc2ccc3c(c2c1CCN1CCC(NCc2cc4c(cn2)OCCO4)CC1)OCCO3`, for which the XC50 stood at 718 nM.

In turn, `CC(C)(C)OC(=O)NCc1ccc(Nc2nnc(-c3cccc(C(=O)NCc4cc(C(F)(F)F)cc(C(F)(F)F)c4)c3)o2)cc1` registered an XC50 of 865 nM.

In the case of `CCCCN(CCCC)/C(=N/C(=N)NCc1ccc(Cl)c(Cl)c1)NCCCCCCN/C(=N\C(=N)NCc1ccc(Cl)c(Cl)c1)N(CCCC)CCCC`, the XC50 came to 399 nM.

Compound `Cc1cc(C)cc(CC(=O)N2CCC(n3c(C)nc4ccc(C)cc43)CC2)c1` yielded an XC50 of 534 nM.

For `CC1CN(c2cc(=O)n(Cc3cccc(NC(=O)Nc4ccc(-c5ccccc5)cc4)c3)cn2)CC(C)N1` (configuration not stated), the XC50 was found to be 396 nM.

`c1cc(-c2cc3ccc(C4=NCCN4)cc3[nH]2)ccc1C1=NCCN1` had an XC50 of 224 nM.

With `COc1cc(Cc2cnc(N)nc2N)cc(OCCCS(=O)(=O)O)c1OC`, the XC50 was 1170 nM.

In the case of `CC(CN1CCN(C)CC1)C(=O)Nc1ccc(-c2ccc(-c3nc4cc(F)ccc4[nH]3)cc2)cc1` (configuration not stated), the XC50 turned out to be 792 nM.

Take `O=C(Nc1ccc(Oc2ccccc2)cc1)N(Cc1ccc(-c2ccc(CN3CCNCC3)cc2)cc1)C1CCN(Cc2ccccc2)CC1`: the XC50 came to 886 nM.

Take `COc1ccc2c(c1)c(C1CCN(CCCCNC(=O)c3ccc(-c4ccc(C(F)(F)F)cc4)cc3)CC1)cn2C(C)C`: the XC50 is 729 nM.

As for `O=C(c1ccc([N+](=O)[O-])o1)N1CCC(Cc2ccc(C(F)(F)F)cc2)CC1`, the XC50 is 166 nM.

In the case of `Cc1ccc(Nc2nc3cc(Nc4ccnc(Nc5ccc(CS(C)(=O)=O)cc5)n4)ccc3o2)cc1`, the XC50 was found to be 765 nM.

Compound `CC(Cc1ccc(C(=O)N2CCN(C(=O)c3ccc(CC(C)NCCc4cccc(Cl)c4)cc3)CC2)cc1)NCCc1cccc(Cl)c1` (configuration not stated) gave an XC50 of 677 nM.

As to `Oc1ccc(CNCCCCCCNCCc2ccc(Cl)cc2)cc1O`, the XC50 is 989 nM.

As to `CCC(=Cc1cccc([N+](=O)[O-])c1)C(=O)NCC1CCN(c2nc3cc(OC)c(OC)cc3c(=N)[nH]2)CC1`, the XC50 turned out to be 236 nM.

Turning to `O=C(O)c1ccc2nc(-c3ccc(-c4ccccc4)cc3)n(C3CCN(Cc4ccc(-c5ncc[nH]5)cc4)CC3)c2c1`, the XC50 came out at 1730 nM.

For the compound `Cc1[nH]c(C)c(-c2ccc(-c3ccccc3Cl)nc2)c(=O)c1Cl`, the XC50 was 217 nM.

As for `O=C(Nc1nccs1)c1cn(-c2ccccc2)nc1-c1ccc(Cl)s1`, the XC50 worked out at 970 nM.

On to `CC(C)(C)C1CCc2onc(C(=O)Nc3cc(Cl)ccc3O)c2C1` (configuration not stated), for which the XC50 turned out to be 779 nM.
